Consider 5 molecules from BindingDB's records for doi:10.7270/Q2TQ5ZZB (Burnham Center For Chemical Genomics, 2010).

In general, pIC50 refers to −log10 of the IC50, conventionally taken in molar units.

pIC50: −log10 of the molar value. Structures can show the parent of a compound that is named as a salt.

The assay deals with G-protein coupled receptor 35 (Homo sapiens, UniProt Q9HC97). As to the kind of experiment: GPR35 antagonists blocking zaprinast-driven arrestin recruitment, primary screen, imaging, U2OS, beta-arrestin-GFP, zaprinast agonist (AID 2058).
G-protein coupled receptor 35, sequence (Q9HC97 whole entry): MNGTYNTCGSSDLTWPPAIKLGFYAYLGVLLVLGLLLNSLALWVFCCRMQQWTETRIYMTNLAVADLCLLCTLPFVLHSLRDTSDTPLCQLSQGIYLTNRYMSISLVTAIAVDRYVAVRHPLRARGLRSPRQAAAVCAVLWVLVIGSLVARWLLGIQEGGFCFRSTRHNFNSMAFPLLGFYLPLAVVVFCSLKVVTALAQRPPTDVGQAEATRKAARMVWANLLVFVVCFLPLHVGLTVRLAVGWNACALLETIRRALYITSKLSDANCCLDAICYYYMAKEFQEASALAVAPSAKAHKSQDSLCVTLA
`CC1(C)Cc2c(ccc3ccccc23)C(CC(=O)N2CCCCC2)=N1` [(2Z)-2-(2,2-dimethyl-1,3-dihydrobenzo[f]isoquinolin-4-ylidene)-1-(1-piperidinyl)ethanone;hydrochloride] showed a pIC50 of 4.96.

`CN1CCC2=C(C#N)C(=N)C(C#N)(C#N)C(c3cccc(Cl)c3Cl)C2C1` (stereo not given) [6-azanyl-8-[2,3-bis(chloranyl)phenyl]-2-methyl-1,3,8,8a-tetrahydroisoquinoline-5,7,7-tricarbonitrile]: the pIC50 is 4.92.

For `Oc1ccc(CN=Nc2nc(-c3ccccc3F)nc3ccccc23)c(O)c1` [MLS000778210], the pIC50 was 5.51.

`CN1CCC2=C(C#N)C(=N)C(C#N)(C#N)C(c3ccsc3)C2C1` (stereo not given) [6-azanyl-2-methyl-8-thiophen-3-yl-1,3,8,8a-tetrahydroisoquinoline-5,7,7-tricarbonitrile] had a pIC50 of 6.00.

Molecule `COc1cccc(C2C3CN(C)CCC3=C(C#N)C(=N)C2(C#N)C#N)c1OC` (stereo not given) [6-Amino-8-(2,3-dimethoxy-phenyl)-2-methyl-2,3,8,8a-tetrahydro-1H-isoquinoline-5,7,7-tricarbonitrile] gave a pIC50 of 5.56.
